Assay results from patent US5861424A, “Composition and method for treating cancer” (priority 1995, dated 1999).
Like-named read-outs stand apart in the source and are kept apart here. Values belong to the molecule of their own block, whether it stands above or below them.

Experiments:
[1] = test system: normal monkey kidney epithelial cell line CV-1; test: Colony formation assay, normal monkey kidney epithelial cells CV-1; settings: for IC50: Primates, Epithelial cell;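 on all read-outs here: colonies visualized by crystal violet staining, incubation at 37 °C, IC50 relative to untreated wells given culture medium alone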
human melanoma LOX = test: Survival of nude mice implanted with human melanoma LOX; assay type: in vivo, human melanoma in male athymic Swiss nu/nu mouse; settings: Mus musculus, ip, 24 h, read-out: T/C (survival)
Experimental: LOX, a human melanoma cell line, grown subcutaneously in nude mice was excised, trypsinized to yield a single cell suspension using a metal grid with a […]. Red blood cells were lysed by incubation with 0.17 molar ammonium chloride at 4° C. for 20 minutes. Five million viable trypan blue negative cells made up in 0.1 ml of Dulbecco modified Eagles' medium (DME) were injected into the peritoneal cavity of a male athymic Swiss nu/nu mouse. The control group and each treatment group consisted of 5 to 10 mice. Treatment was commenced the following day by intraperitoneal injection.
Ten control mice received 0.25 ml of 2% dextrose on those days the treated groups were injected with the compounds of this invention. The compounds of the General Formulas. (1) to (6) used in this invention which were tested are listed in Table VIII below and the results obtained are shown in Table VIII and FIG. 1-6 of the accompanying drawings. T/C is the ratio, expressed as a percentage of the mean survival age of the treated group to the mean survival age of the untreated control group.

[2] = test system: human colon carcinoma cell line CX-1; test: Colony formation assay, human colon carcinoma CX-1; assay type: cell-based; settings: Table III; for IC50: Homo sapiens, Colon carcinoma cell, read-out: CX-1 (IC50); for IC50 / CX-1 (IC50): 24 h treatment, colony count after 7 to 10 days; for Selectivity (ratio of IC50 for CV-1 and IC50 for CX-1): CV-1/CX-1
[3] = test system: human pancreatic carcinoma CRL 1420 cell line; test: Colony formation assay, human pancreatic carcinoma CRL 1420; assay type: cell-based; settings: Table VII; for Selectivity (CV-1 IC50 / CRL-1420 IC50): CV-1/CRL-1420
Description: (§1) The control received culture media only.
The Selectivity values, CRL 1420 values and CV-1 values for compounds of the General Formulas (1) to (6) used in the present invention are shown in Table VII below.

[4] = test system: human colon carcinoma CX-1; test: Anti-human colon carcinoma CX-1 activity in nude mice, tumor inhibition; assay type: in vivo, human colon carcinoma in Swiss nu/nu mice; settings: Mus musculus, ip, 24 h, 20 mg/kg
Description: Human colon carcinoma cell line CX-1 has been chosen by the National Cancer Institute as a mode for cancer drug screening (NCI Protocol 3C2H2). It was established in culture from the surgical explant of the primary colon adenocarcinoma of a person with no previous chemotherapy. The cultured CX-1 cells, upon subcutaneous injection, can grow readily in nude mice as a moderately- to well-differentiated human colon carcinoma. CEA is expressed as expected for differentiated colon carcinoma cells. Abundant keratin, consistent with epithelial origin, is present. Increased uptake and prolonged retention of delocalized lipophilic cations are observed.
Swiss nu/nu mice obtained from Taconic Farm were housed in a pathogen-free environment. Tumors subcutaneously passaged in nude mice were excised under sterile conditions and converted to a single cell suspension using a metal grid with a 0.4 mm mesh. Red blood cells were lysed by incubation with 0.17M ammonium chloride at 4° C. for 20 minutes. Cells were scored for viability with trypan blue. Viable CX-1 cells (2.5 million) made up in 0.1 ml of cell culture medium were injected subcutaneously into each nude mouse. The mice were randomly allocated into a control group (five mice) and a treatment group (five mice per group). The drug treatment was commenced the next day. Doses and schedules were developed empirically and were based mainly on information on LD50 and LD10 obtained from preliminary toxicity studies. The control group received an equivalent volume of hydroxylpropyl-β-cyclodextrin-5% glucose solution.
The pharmaceutical compositions tested comprised solutions in 5% glucose subjected to sonication at concentrations of 1 mg/ml. Those compounds which were not completely dissolved by this procedure were dissolved in hydroxypropyl-β-cyclodextrin using the following method. Hydroxypropyl-β-cyclodextrin (45 g) was mixed with 100 ml of sterilized, double distilled water and stirred for four hours. Each of the compounds to be tested (20 mg) was mixed with 10 ml of hydroxypropyl-β-cyclodextrin solution and sonicated for 60 minutes in the dark. This solution was then diluted in 5% glucose to yield a final compound concentration of 0.5 mg/ml, and further sonicated for 60 minutes in the dark to assure that the compound was completely dissolved.
When the growth of tumors in the control group reached the exponential phase and the size of the tumor was palpable (usually 20 to 30 days after tumor implantation), the experiments were terminated. Tumors in each mouse were excised and weighed using an analytical balance. Total tumor weight in each group from five mice was calculated. Per cent tumor inhibition between the treated group and the control group was then calculated for each group.

[5] = test system: human bladder carcinoma EJ cell line; test: Colony formation assay, human bladder carcinoma EJ; assay type: cell-based; settings: Table IV
Description: as §1

[6] = test system: human melanoma LOX cell line; test: Colony formation assay, human melanoma LOX; assay type: cell-based; settings: Table V
Description: as §1

[7] = read-out: CV-1 (IC50), Table III, 24 h treatment, colony count after 7 to 10 days
[8] = i.p. on day 1, 4, 7, 11, 15, 18

Compound: CCN1C(=CC=c2sc(=Cc3sc4c5ccccc5ccc4[n+]3CCO)n(CC)c2=O)Sc2ccc3ccccc3c21 [Compound 53]
IC50 [1, 7]: 20 µg/mL
IC50 ([1]; read-out: CV-1 (IC50), Table VII): 20 µg/mL
response vs control in vivo at 20 mg/kg (human melanoma LOX; 20 mg/kg, i.p. on day 1, 3, 6, 9, 13, 16): 222%
IC50 [2]: 0.05 µg/mL
Selectivity (ratio of IC50 for CV-1 and IC50 for CX-1) [2]: 400
IC50 ([3]; Homo sapiens, 24 h, 24 h treatment): 0.18 µg/mL
Selectivity (CV-1 IC50 / CRL-1420 IC50) [3]: 111

Compound: CCN1CCSC1=CC=c1sc(=Cc2cc[n+](CC)c3ccccc23)n(CC)c1=O [Compound 146]
inhibition in vivo at 20 mg/kg ([4]; i.p. on day 1, 7**, 9** (**10 mg/kg)): 59.3%

Compound: CCN1CCSC1=CC=c1sc(=Cc2sc3c4ccccc4ccc3[n+]2CC)n(CC)c1=O [Compound 150]
CV-1 (IC50) ([1]; Table III, 24 h treatment, colony count after 7 to 10 days): 1 µg/mL
response vs control in vivo at 5 mg/kg (human melanoma LOX; i.p. on day 1, 2, 9, 13, 16): 216%
CX-1 (IC50) [2]: 0.01 µg/mL
Selectivity (ratio of IC50 for CV-1 and IC50 for CX-1) [2]: 100

IC50 [2]: 0.005 µg/mL
Selectivity (ratio of IC50 for CV-1 and IC50 for CX-1) [2]: 4000
Compound: CN1C(=CC=c2sc(=Cc3sc4c5ccccc5ccc4[n+]3C)n(C)c2=O)Sc2ccc3ccccc3c21 [Compound 48]
IC50 [1, 7]: 20 µg/mL
inhibition in vivo at 20 mg/kg [4, 8]: 72.4%

Compound: CCN1C(=CC=c2sc(=Cc3sc4c5ccccc5ccc4[n+]3CC)n(CC)c2=O)Sc2ccc3ccccc3c21 [Compound 31]
IC50 [1, 7]: 10 µg/mL
response vs control in vivo at 40 mg/kg (human melanoma LOX; 40 mg/kg, i.p. on day 1, 2, 3, 4, 8, 10, 17): 169%
IC50 [2]: 0.025 µg/mL
Selectivity (ratio of IC50 for CV-1 and IC50 for CX-1) [2]: 400

IC50 [2]: 0.02 µg/mL
Selectivity (ratio of IC50 for CV-1 and IC50 for CX-1) [2]: 1000
Compound: CCn1c(=Cc2sc3c4ccccc4ccc3[n+]2C)sc(=CC=C2Sc3ccc4ccccc4c3N2C)c1=O [Compound 44]
IC50 [1, 7]: 20 µg/mL
inhibition in vivo at 20 mg/kg [4, 8]: 54.8%

Compound: CCn1c(=Cc2sc3c4ccccc4ccc3[n+]2CC)sc(=CC=C2Sc3ccc4ccccc4c3N2C)c1=O [Compound 56]
IC50 ([1]; read-out: CV-1 (IC50), Table IV): 20 µg/mL
CX-1 (IC50) [2]: 0.1 µg/mL
Selectivity (ratio of IC50 for CV-1 and IC50 for CX-1) [2]: 200
inhibition in vivo at 20 mg/kg ([4]; i.p. on day 1, 5, 8, 11): 82.6%
IC50 ([5]; Homo sapiens, EJ, 24 h, 24 h treatment, read-out: EJ (IC50)): 0.09 µg/mL
Selectivity (CV-1 IC50 / EJ IC50) ([5]; CV-1/EJ): 222
CRL-1420 (IC50) ([3]; 24 h treatment): < 0.046 µg/mL
Selectivity (CV-1 IC50 / CRL-1420 IC50) [3]: > 435

Compound: CCC[n+]1c(C=c2sc(=CC=C3Sc4c(ccc5ccccc45)N3CC)c(=O)n2CC)sc2cc(C)c(OCC)cc21 [Compound 6]
IC50 ([1]; read-out: CV-1 (IC50)): 10 µg/mL
response vs control in vivo at 5 mg/kg (human melanoma LOX; i.p. on day 1, 3, 5, 7): 126%
IC50 [2]: 0.025 µg/mL
Selectivity (ratio of IC50 for CV-1 and IC50 for CX-1) [2]: 400

Compound: CCN1C(C)=CSC1=CC=c1sc(=Cc2sc3ccccc3[n+]2CC)n(CC)c1=O [Compound 96]
IC50 ([1]; read-out: CV-1 (IC50), Table V): 20 µg/mL
IC50 ([6]; Homo sapiens, LOX, 24 h, 24 h treatment, read-out: LOX (IC50)): 0.09 µg/mL
Selectivity (CV-1 IC50 / LOX IC50) ([6]; CV-1/LOX): 222
response vs control in vivo at 2 mg/kg (human melanoma LOX; 2 mg/kg, i.p. on day 1, 2, 3*, 6*, 9*, 13*, 16* (*4 mg/kg)): 253%
CX-1 (IC50) [2]: 0.03 µg/mL
Selectivity (ratio of IC50 for CV-1 and IC50 for CX-1) [2]: 667
